Source: US12325710B2, “Substituted 1,2,3,4,5,6-hexahydroazepino[4,5-b]indoles for treating brain disorders” (priority 2019, dated 2025)
Entries after “also recorded” stand apart in the source; their conditions may differ.

How the values were obtained:
5HT2A sensor = 5HT2A sensor assay (sLight1.3s HEK293T cells), agonist and antagonist mode; assay type: cell-based; settings: for activation of 5HT2A sensor, agonist mode / competition with 5HT binding at 5HT2A sensor, antagonist mode: 10 μM of compound; for activation of 5HT2A sensor, agonist mode: FIG. 16; for competition with 5HT binding at 5HT2A sensor, antagonist mode: FIG. 18; for activation of 5HT2A sensor, agonist mode, dose response: FIG. 15
Procedure: 5HT2A Sensor Assays. HEK293T (ATCC) 5HT2A sensor stable line (sLight1.3s) was generated via lentiviral transduction of HIV-EF1α-sLight1.3 and propagated from a single colony. Lentivirus was produced using 2nd generation lentiviral plasmids pHIV-EF1α-sLight1.3, pHCMV-G, and pCMV-deltaR8.2.
For the screening of the 41 compounds, sLight1.3s cells were plated in 96-well plates at a density of 40000 24-hours prior to imaging. On the day of imaging, compounds solubilized in DMSO were diluted from the 100 mM stock solution to working concentrations of 1 mM, 100 μM and 1 μM with a DMSO concentration of 1%. Immediately prior to imaging, cells growing in DMEM (Gibco) were washed 2× with HBSS (Gibco) and in agonist mode 180 μL of HBSS or in antagonist mode 160 μL of HBSS was added to each well after the final wash. For agonist mode, images were taken before and after the addition of the 20 μL compound working solution into the wells containing 180 μL HBSS. This produced final compound concentrations of 100 μM, 10 μM and 100 nM with a DMSO concentration of 0.1%. For antagonist mode, images were taken before and after addition of 20 μL of 900 nM 5-HT and again after 20 μL of the compound working solutions to produce final concentrations of 100 nM for 5HT and 100 μM, 10 μM and 100 nM for the compounds with a DMSO concentration of 0.1%. Each compound was tested in triplicates (3 wells) for each concentration (100 μM, 10 μM and 100 nM). Additionally, within each plate, 100 nM 5HT and 0.1% DMSO controls were also imaged.
For each well, the cellular membrane where the 5HT2A sensor is targeted was autofocused using the adaptive focus controls and 5 images from different regions within the well were taken with each image processed from a 2×2 binning.
For data processing, the membranes from each image was segmented and analyzed using a custom algorithm written in MATLAB producing a single raw fluorescence intensity value. For each well the 5 raw fluorescence intensity values generated from the 5 images were averaged and the change in fluorescence intensity (dFF) was calculated as: dFF=(Fsat−Fapo)/Fapo
For both agonist and antagonist modes, the fluorescence intensity values before compound addition in HBSS only were used as the Fapo values while the fluorescence intensity values after compound addition were used as the Fsat values.
For agonist mode, data are as percent activation relative to 5HT, where 0 is the average of the DMSO wells and 100 is the average of the 100 μM 5HT wells.

5-HT2B receptors = 5-HT2B receptors (Homo sapiens, UniProt P41595); experiment: 5-HT2B Gq-mediated calcium flux functional assay; assay type: cell-based
Sequence of 5-HT2B receptors (P41595 whole entry, canonical isoform): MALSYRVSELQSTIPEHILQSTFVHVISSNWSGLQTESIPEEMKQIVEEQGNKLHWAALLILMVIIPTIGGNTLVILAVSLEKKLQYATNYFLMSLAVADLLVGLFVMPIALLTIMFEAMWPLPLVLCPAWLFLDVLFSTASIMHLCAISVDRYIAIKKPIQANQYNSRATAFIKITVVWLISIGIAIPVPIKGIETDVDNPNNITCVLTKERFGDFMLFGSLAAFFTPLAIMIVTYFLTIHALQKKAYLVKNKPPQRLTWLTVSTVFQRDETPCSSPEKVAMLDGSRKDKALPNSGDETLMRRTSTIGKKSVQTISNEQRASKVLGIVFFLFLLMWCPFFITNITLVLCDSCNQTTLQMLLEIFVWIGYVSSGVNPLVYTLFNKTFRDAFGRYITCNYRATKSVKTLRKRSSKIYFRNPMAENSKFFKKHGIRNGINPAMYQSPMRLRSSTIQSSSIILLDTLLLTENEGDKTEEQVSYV
Procedure: Serotonin and Opioid Receptor Functional Assays. Functional assay screens at 5-HT and opioid receptors were performed in parallel using the same compound dilutions and 384-well format high-throughput assay platforms. Assays assessed activity at all human isoforms of the receptors, except where noted for the mouse 5-HT2A receptor. Receptor constructs in pcDNA vectors were generated from the Presto-Tango GPCR library with minor modifications. All compounds were serially diluted in drug buffer (HBSS, 20 mM HEPES, pH 7.4 supplemented with 0.1% bovine serum albumin and 0.01% ascorbic acid) and dispensed into 384-well assay plates using a FLIPR^TETRA (Molecular Devices). Every plate included a positive control such as 5-HT (for all 5-HT receptors), DADLE (DOR), salvinorin A (KOR), and DAMGO (MOR). For measurements of 5-HT2A, 5-HT2B, and 5-HT2C Gq-mediated calcium flux function, HEK Flp-In 293 T-Rex stable cell lines (Invitrogen) were loaded with Fluo-4 dye for one hour, stimulated with compounds and read for baseline (0-10 seconds) and peak fold-over-basal fluorescence (5 minutes) at 25° C. on the FLIPR^TETRA. For measurement of 5-HT6 and 5-HT7a functional assays, Gs-mediated cAMP accumulation was detected using the split-luciferase GloSensor assay in HEKT cells measuring luminescence on a Microbeta Trilux (Perkin Elmer) with a 15 min drug incubation at 25° C. For 5-HT1A, 5-HT1B, 5-HT1F, MOR, KOR, and DOR functional assays, Gi/o-mediated cAMP inhibition was measured using the split-luciferase GloSensor assay in HEKT cells, conducted similarly as above, but in combination with either 0.3 μM isoproterenol (5-HT1A, 5-HT1B, 5-HT1F) or 1 μM forskolin (MOR, KOR, and DOR) to stimulate endogenous cAMP accumulation. For measurement of 5-HT1D, 5-HT1E, 5-HT4, and 5-HT5A functional assays, β-arrestin2 recruitment was measured by the Tango assay utilizing HTLA cells expressing TEV fused-β-arrestin2, as described previously with minor modifications. […]

C57BL/6J mice = experiment: Head-twitch response (HTR) assay; settings: intraperitoneal; fumarate salts; 5-MeO-DMT 10 mg/kg as positive control
[1] = system: rat embryonic cortical neurons; experiment: Dendritogenesis (Sholl analysis) in cultured cortical neurons; assay type: cell-based; settings: 1 h treatment followed by 71 h growth; compared to vehicle (VEH)
Procedure: Embryonic rat cortical neurons were treated for a short period of time (1 h) followed by a suitable growth period (71 h) to measure the psychoplastogenic effects of the compounds described herein. […] Therefore, the effects of ibogalogs 8-17 on dendritic growth was assessed.
Dendritogenesis Experiments. For the dendritogenesis experiments conducted using cultured cortical neurons, timed pregnant Sprague Dawley rats were obtained from Charles River Laboratories (Wilmington, MA). Full culturing, staining, and analysis details were performed as previously described. (Dunlap, L. et al., 2019)

[2] = system: mouse primary sensory cortex; experiment: In vivo spine dynamics, transcranial 2-photon imaging; settings: 24 h after i.p. dose; TBG 50 mg/kg, DOI 10 mg/kg
Procedure: In Vivo Spine Dynamics. Male and female Thy1-GFP-M line mice (n=5 per condition) were purchased from The Jackson Laboratory (JAX #007788) and maintained in UCSC animal facilities according to an IACUC approved protocol. In vivo transcranial two-photon imaging and data analysis were performed as previously described. Briefly, mice were anesthetized with an intraperitoneal (i.p.) injection of a mixture of ketamine (87 mg/kg) and xylazine (8.7 mg/kg). A small region of the exposed skull was manually thinned down to 20-30 μm for optical access. Spines on apical dendrites in mouse primary sensory cortices were imaged using a Bruker Ultima IV two-photon microscope equipped with an Olympus water-immersion objective (40×, NA=0.8) and a Ti:Sapphire laser (Spectra-Physics Mai-Tai, excitation wavelength 920 nm). Images were taken at a zoom of 4.0 (pixel size 0.143×0.143 μm) and Z-step size of 0.7 μm. The mice received an i.p. injection (injection volume=5 mL/kg) of DOI (10 mg/kg) or TBG (50 mg/kg) immediately after they recovered from anesthesia given prior to the first imaging session. The animals were re-imaged 24 h after drug administration. Dendritic spine dynamics were analyzed using ImageJ. Spine formation and elimination were quantified as percentages of spine number on day 0.

[3] = system: larval zebrafish expressing GCaMP5; experiment: Seizurogenic potential in larval zebrafish expressing GCaMP5; assay type: in vivo; settings: 200 μM; PTZ positive control
Procedure: Transgenic larval zebrafish expressing GCaMP5G were immobilized in agarose, treated with compounds, and imaged over time. The known seizure-inducing compound PTZ was used as a positive control. All compounds were treated at 200 μM (n=2 per condition).

larval zebrafish = experiment: Larval zebrafish movement activity during a battery of light and acoustic stimuli; settings: for behavioral phenotype at highest concentration versus lethal control: 200 μM; for behavioral phenotype with increasing concentration versus vehicle and lethal control (eugenol, 100 μM): 1 h treatment, concentration-response
Text: Stimuli applied over time are indicated under the heatmaps. Colors indicate bright LED light of respective colors, black traces represent the waveforms of acoustic stimuli, and gray vertical lines indicate physical tapping as secondary acoustic stimuli.
Response is […] proportional to classification accuracy; 0-20% indicates no ability and 100% indicates perfect classification. […] The solid line denotes the median and the shading denotes a 95th percentile confidence interval calculated by bootstrap. N=8 wells/condition (64 animals/condition).

zebrafish = experiment: Zebrafish developmental toxicity assay; assay type: in vivo; settings: 100 μM; 2 and 5 dpf

CCN(CC)C(=O)[C@@H]1C=C2c3cccc4[nH]c(Br)c(c34)C[C@H]2N(C)C1 [BOL148]
activation of 5HT2A sensor, agonist mode (5HT2A sensor): do not activate the 5HT2A sensor assay in agonist mode
competition with 5HT binding at 5HT2A sensor, antagonist mode (5HT2A sensor; antagonist mode): compete with 5HT binding to 5HT2A

COc1ccc2[nH]cc(CCN(C)C)c2c1 [Compound 5-MeO-DMT, 5-methoxy-N,N-dimethyltryptamine, reference compound]
activation of 5HT2A sensor, agonist mode (5HT2A sensor): activate the 5HT2A sensor assay in agonist mode
activation of 5HT2A sensor, agonist mode, dose response (5HT2A sensor): activate a 5HT2A sensor assay in agonist mode
activity mode at 5-HT2B receptors (5-HT2B receptors): agonists of 5-HT2B receptors
hallucinogenic potential (head-twitch response) (C57BL/6J mice): robust HTR

CCN(CC)CCc1c[nH]c2cc(F)ccc12 [Compound 6-F-DET]
activation of 5HT2A sensor, agonist mode (5HT2A sensor): do not activate the 5HT2A sensor assay in agonist mode
competition with 5HT binding at 5HT2A sensor, antagonist mode (5HT2A sensor; antagonist mode): compete with 5HT binding to 5HT2A

COc1ccc2c(CCN(C)C)c[nH]c2c1 [Compound 6-MeO-DMT]
activation of 5HT2A sensor, agonist mode (5HT2A sensor): do not activate the 5HT2A sensor assay in agonist mode
activation of 5HT2A sensor, agonist mode, dose response (5HT2A sensor): do not
competition with 5-HT at 5HT2A sensor, antagonist mode, dose response (5HT2A sensor; antagonist mode, FIG. 17): compete off 5-HT

CCC1CC2CCC1N(CCc1c[nH]c3ccc(O)cc13)C2 (stereo not drawn) [Compound 11b]
psychoplastogenic effect on dendritic growth (Sholl analysis) [1]: weak psychoplastogens or did not promote neuronal growth

CN(C)CCc1c[nH]c2ccccc12 [DMT]
activation of 5HT2A sensor, agonist mode (5HT2A sensor): activate the 5HT2A sensor assay in agonist mode

COc1cc(CC(C)N)c(OC)cc1I (stereo not drawn) [DOI, 2,5-dimethoxy-4-iodoamphetamine, reference compound]
activation of 5HT2A sensor, agonist mode (5HT2A sensor): activate the 5HT2A sensor assay in agonist mode
spine elimination [2]: no effect on spine elimination; also recorded: Neither TBG nor DOI affected spine elimination
spine formation [2]: increased spine formation

O=C(c1ccc(F)cc1)C1CCN(CCn2c(=O)[nH]c3ccccc3c2=O)CC1 [Ketanserin, ketanserin]
activation of 5HT2A sensor, agonist mode (5HT2A sensor): do not activate the 5HT2A sensor assay in agonist mode
competition with 5HT binding at 5HT2A sensor, antagonist mode (5HT2A sensor; antagonist mode): compete with 5HT binding to 5HT2A

CCN(CC)C(=O)[C@@H]1C=C2c3cccc4[nH]cc(c34)C[C@H]2N(C)C1 [LSD, lysergic acid diethylamide]
activation of 5HT2A sensor, agonist mode (5HT2A sensor): activate the 5HT2A sensor assay in agonist mode
activation of 5HT2A sensor, agonist mode, dose response (5HT2A sensor): activate a 5HT2A sensor assay in agonist mode

C1CCc2nnnn2CC1 [PTZ, pentylenetetrazole, reference compound]
seizure induction (neural activity) [3]: excessive neural activity

CNC(C)Cc1ccc2c(c1)OCO2 (stereo not drawn) [R-MDMA]
activation of 5HT2A sensor, agonist mode (5HT2A sensor): do not activate the 5HT2A sensor assay in agonist mode

O=S1OCC2C(CO1)C1(Cl)C(Cl)=C(Cl)C2(Cl)C1(Cl)Cl (stereo not drawn) [endosulfan, reference compound]
behavioral phenotype at highest concentration versus lethal control (larval zebrafish): phenotypically consistent with the lethal control

O=C(CCCN1CCC(O)(c2ccc(Cl)cc2)CC1)c1ccc(F)cc1 [haloperidol, reference compound]
behavioral phenotype with increasing concentration versus vehicle and lethal control (eugenol, 100 μM) (larval zebrafish): more phenotypically distinct from the vehicle control, while more closely resembling the lethal control

CC[C@H]1C[C@H]2C[C@H]3c4[nH]c5ccc(O)cc5c4CCN(C2)[C@@H]13 [noribogaine, reference compound]
malformations, mortality, non-viable fish (zebrafish): greater survival, but the majority of the animals exhibited yolk sac and/or pericardial edemas
behavioral phenotype at highest concentration versus lethal control (larval zebrafish): phenotypically consistent with the lethal control
behavioral phenotype with increasing concentration versus vehicle and lethal control (eugenol, 100 μM) (larval zebrafish): more phenotypically distinct from the vehicle control, while more closely resembling the lethal control

O=C1NCCN1CCN1CCC(c2cn(-c3ccc(F)cc3)c3ccc(Cl)cc23)CC1 [sertindole, reference compound]
behavioral phenotype with increasing concentration versus vehicle and lethal control (eugenol, 100 μM) (larval zebrafish): more phenotypically distinct from the vehicle control, while more closely resembling the lethal control

CC(C)(C)c1ccc(C(O)CCCN2CCC(C(O)(c3ccccc3)c3ccccc3)CC2)cc1 (stereo not drawn) [terfenadine, reference compound]
behavioral phenotype with increasing concentration versus vehicle and lethal control (eugenol, 100 μM) (larval zebrafish): more phenotypically distinct from the vehicle control, while more closely resembling the lethal control

ibogaine [reference compound]
psychoplastogenic effect on dendritic growth (Sholl analysis) [1]: demonstrates psychoplastogenic effects
